In PMC4167698, “Fatty Acid Esters of Phloridzin Induce Apoptosis of Human Liver Cancer Cells through Altered Gene Expression” (PLoS ONE, 2014):

Experiments:
human DNA topo IIα = target: T1, human DNA topo IIα (Homo sapiens, UniProt P11388); experiment: Topoisomerase IIα catalytic activity (pHOT1 DNA relaxation); assay type: biochemical; details: 100 µM, 4 units enzyme, 37°C 30 min
T1 construct: purchased TopoGEN, Inc., Columbus, OH, USA
Description: The topo IIα catalytic activity was monitored via electrophoresis using topoisomerase II drug screening kit (TopoGEN, Inc., Columbus, OH, USA). Briefly, 20 µL of reaction mixtures contained 0.5 M Tris-HCl, pH 8.0, 1.5 M NaCl, 100 mM MgCl2, 20 mM ATP, 300 µg BSA/mL and 5 mM dithiothreitol. Supercoiled DNA (pHOT1 DNA), supercoiled provided in the kit was determined to be ideal for this assay because it is small and easy to handle and has a large number of topo IIα recognition elements. […] The reaction was terminated by adding 2 µL of 10% sodium dodecyl sulfate (SDS) followed by digestion with 2 µL of proteinase K (50 µg/mL) at 37°C for 15 min to degrade enzyme. After adding 2 µL of loading buffer (0.25% bromophenol blue and 50% glycerol) was added to the mixture, samples were loaded onto 1% agarose gel. Electrophoresis was conducted at 66 V (2 V/cm) for 5 h in TBE buffer using Biorad Electrophoretic Gel System (Bio-Rad, Hercules, CA, USA). Supercoiled DNA (pHOT1 DNA) and relaxed DNA were included in the electrophoresis run as markers for DNA topology. Gels were then stained in 0.5 µg/mL gel red in TBE for 30 min and destained for 15 min in distilled water prior to digital image acquisition using Gel Doc 100 system (Bio-Rad, Hercules, CA, USA).
One unit of topoisomerase II activity was defined as the minimum amount of enzyme required to achieve complete relaxation of […] superhelical pHOT1 DNA in 30 min at 37°C. […] The percent of inhibition was calculated by the following formula: [drawing 1] Where Scontrol is the percent of supercoiled DNA in the control lane (without enzyme and test compounds), S0 is the percent of supercoiled DNA in the lane without test compounds and S is the percent of supercoiled DNA in the lane with test compounds and enzyme.

HepG2 cells [1] = experiment: DNA fragmentation (apoptotic DNA ladder); assay type: cell-based, human; details: HepG2, 100 µM, 24 h, agarose gel
Description: HepG2 (1×10^5) cells were seeded in 24-well culture plates and were allowed to adhere overnight. […] The plates were re-incubated for another 24 h. DNA fragmentation was detected using ApoTarget Quick Apoptotic DNA Ladder Detection Kit (Invitrogen, Burlington, ON, Canada) according to the manufacturer’s protocol. The principle involves detecting the internucleosomal DNA fragments formed during apoptosis. Briefly, floating dead cells and trypsinized adherent cells were collected and centrifuged at 1,000 rpm for 10 min. After washing with diluted phosphate buffered saline, the cells were lysed with 35 µL TE lysis buffer (a kit component). To the lysate, 5 µL of Enzyme A (a kit component) was added and incubated at 37°C for 10 min. Afterwards, 5 µL of Enzyme B (a kit component) was added, gently mixed and incubated at 50°C for 30 min. The DNA was precipitated with the ammonium acetate and absolute ethanol at −20°C. After centrifugation (10 min at 12,000 rpm) and air drying, the DNA pellet was dissolved in 30 µL of DNA suspension buffer. For detecting the DNA ladder, the extracted DNA samples were run on a 1.2% agarose gel containing 0.5 µg/mL gel red in Tris-Borate-EDTA (TBE) buffer. After electrophoresis, the gel image was captured using Gel Doc 100 system (Bio-Rad, Mississauga, ON, Canada).

THP-1 cells = experiment: MTS cell proliferation assay, THP-1; assay type: cell-based, human; details: Homo sapiens, MTS
Description: (§1) Cell viability was determined by using the MTS assay. In brief, HepG2 cells (5×10^3 cells/100 µL/well), MDA-MB-231 (5×10^3 cells/100 µL/well), THP-1 (25×10^3/100 µL/well), normal human and rat hepatocytes (1×10^4 cells/100 µL/well) were plated in triplicate, in a 96 well sterile flat bottom tissue culture plates. […] Thereby, cells were exposed to various concentrations (0.1, 1, 10, 25, 50, 75, 100 µM) of each treatment. Controls consist of cells with media containing DMSO (<0.5%), test blank wells contained the test compound in media with no cells and blank wells contained media with no cells. After additional 3, 6, 12, 18 or 24 h, 20 µL of the MTS reagent in combination with the electron coupling agent, phenazine methosulfate were added to the wells and cells were incubated in a humidified incubator for 3 h. Absorbance at 490 nm (OD490) was measured by using a Flurostar Optima microplate reader (BMG Labtech, Cary, NC, USA) to obtain the number of viable cells relative to the control population. Percentage of viability of the test compound treated cells are expressed as percentage compared to control (<0.5% DMSO). […] The selective index (SI) of the fatty acid esters of phloridzin is defined as the ratio of cytotoxicity (EC50 values) on normal HP-F cells to solid cancer HepG2, MDA-MB-231 cells (SI = EC50 on HP-F cells/EC50 on solid cancer cells). Samples with SI values greater than three were considered to have high selectivity towards cancer cells.

MDA-MB-231 cells = experiment: MTS cell proliferation assay, MDA-MB-231; assay type: cell-based, human; details: Homo sapiens, MTS
Description: as §1

[2] = test system: caspase 3 activity of HepG2 cells; experiment: Caspase-3 colorimetric activity assay; assay type: cell-based, human; details: HepG2, 100 µM, 24 h, compared to DMSO control
Description: The activity of caspase 3 enzyme was measured using caspase 3 colorimetric assay kit purchased from Sigma-Aldrich. […] Cells were lysed and the protein content of cell lysate was quantified by the BCA protein assay (Thermo Fisher Scientific Inc., Ottawa, ON, Canada). Caspase-3 activity was measured in the 200 µg of cell lysate using the caspase-specific peptide substrate, DEVD (Asp-Glu-Val-Asp), conjugated to reporter p-nitroanaline (ρ-NA) molecules.

HepG2 cells [3] = experiment: MTS cell proliferation assay, HepG2; assay type: cell-based, human; details: Homo sapiens, MTS
Description: as §1

T1 sequence (P11388 whole entry): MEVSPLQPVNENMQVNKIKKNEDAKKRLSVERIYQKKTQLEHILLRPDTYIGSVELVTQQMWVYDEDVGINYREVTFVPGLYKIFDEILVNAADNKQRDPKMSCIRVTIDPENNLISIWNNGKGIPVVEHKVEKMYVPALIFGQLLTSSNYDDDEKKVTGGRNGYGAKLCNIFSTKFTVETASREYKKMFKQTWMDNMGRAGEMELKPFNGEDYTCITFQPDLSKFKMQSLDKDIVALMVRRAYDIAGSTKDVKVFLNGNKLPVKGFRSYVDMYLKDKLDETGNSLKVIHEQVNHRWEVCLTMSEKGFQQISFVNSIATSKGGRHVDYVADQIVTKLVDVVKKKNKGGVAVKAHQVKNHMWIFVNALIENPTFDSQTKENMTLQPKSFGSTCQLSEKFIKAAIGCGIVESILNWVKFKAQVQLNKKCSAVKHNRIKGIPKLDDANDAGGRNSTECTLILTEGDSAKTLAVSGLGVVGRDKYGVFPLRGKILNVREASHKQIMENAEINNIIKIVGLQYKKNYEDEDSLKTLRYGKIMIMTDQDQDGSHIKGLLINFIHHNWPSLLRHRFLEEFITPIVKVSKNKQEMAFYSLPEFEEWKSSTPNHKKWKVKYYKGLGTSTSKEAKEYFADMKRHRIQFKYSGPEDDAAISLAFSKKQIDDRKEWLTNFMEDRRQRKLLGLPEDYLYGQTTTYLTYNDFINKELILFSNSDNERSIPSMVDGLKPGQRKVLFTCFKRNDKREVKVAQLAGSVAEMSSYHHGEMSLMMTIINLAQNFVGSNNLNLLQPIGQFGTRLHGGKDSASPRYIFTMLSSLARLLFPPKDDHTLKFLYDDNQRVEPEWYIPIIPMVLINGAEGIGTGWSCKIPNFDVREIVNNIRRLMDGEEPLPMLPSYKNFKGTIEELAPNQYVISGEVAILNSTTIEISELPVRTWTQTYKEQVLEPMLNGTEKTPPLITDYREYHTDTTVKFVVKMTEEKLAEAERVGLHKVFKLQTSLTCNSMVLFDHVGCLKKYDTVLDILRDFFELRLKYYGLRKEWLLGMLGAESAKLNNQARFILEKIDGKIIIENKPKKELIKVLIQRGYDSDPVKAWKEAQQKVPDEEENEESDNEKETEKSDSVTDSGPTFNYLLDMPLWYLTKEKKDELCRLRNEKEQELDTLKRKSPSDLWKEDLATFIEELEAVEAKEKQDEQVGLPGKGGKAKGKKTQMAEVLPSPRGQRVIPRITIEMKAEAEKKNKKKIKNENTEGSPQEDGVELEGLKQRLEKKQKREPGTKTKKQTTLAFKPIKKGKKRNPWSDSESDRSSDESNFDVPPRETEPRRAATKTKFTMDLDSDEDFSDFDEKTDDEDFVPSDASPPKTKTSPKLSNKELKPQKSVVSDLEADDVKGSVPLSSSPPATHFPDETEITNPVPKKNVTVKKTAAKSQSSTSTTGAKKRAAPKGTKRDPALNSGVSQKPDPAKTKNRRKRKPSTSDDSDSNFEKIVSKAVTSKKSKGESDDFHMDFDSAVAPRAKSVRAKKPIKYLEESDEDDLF

SMILES | catalytic activity of human DNA topo IIα (pHOT DNA relaxation) (human DNA topo IIα) | internucleosomal DNA fragmentation (HepG2 cells [1]) | EC50 (THP-1 cells; THP-1, 3 h) | EC50 (THP-1 cells; THP-1, 6 h) | EC50 (THP-1 cells; THP-1, 12 h) | EC50 (THP-1 cells; THP-1, 18 h) | EC50 (THP-1 cells; THP-1, 24 h) | EC50 (MDA-MB-231 cells; MDA-MB-231, 3 h) | EC50 (MDA-MB-231 cells; MDA-MB-231, 6 h) | EC50 (MDA-MB-231 cells; MDA-MB-231, 12 h) | EC50 (MDA-MB-231 cells; MDA-MB-231, 18 h) | EC50 (MDA-MB-231 cells; MDA-MB-231, 24 h) | caspase 3 activity [2] | EC50 (HepG2 cells [3]; HepG2, 3 h) | EC50 (HepG2 cells [3]; HepG2, 6 h) | EC50 (HepG2 cells [3]; HepG2, 12 h) | EC50 (HepG2 cells [3]; HepG2, 18 h) | EC50 (HepG2 cells [3]; HepG2, 24 h)
O=C(CCc1ccc(O)cc1)c1c(O)cc(O)cc1O[C@@H]1O[C@H](CO)[C@@H](O)[C@H](O)[C@H]1O [Phloridzin, phloretin 2′-O-glucoside] | inhibited catalytic activity | only intact genomic DNA | > 100 µM | > 100 µM | > 100 µM | > 100 µM | > 100 µM | > 100 µM | > 100 µM | > 100 µM | > 100 µM | > 100 µM | enhanced caspase 3 activity but significantly (P<0.001) lower than fatty acid esters of phloridzin or the drug | > 100 µM | > 100 µM | > 100 µM | > 100 µM | > 100 µM
O=C(CCc1ccc(O)cc1)c1c(O)cc(O)cc1O [Phloretin] | inhibited catalytic activity | only intact genomic DNA | 73.5 ± 5.2 µM | 64.1 ± 5.4 µM | 60.1 ± 4.2 µM | 56.9 ± 3 µM | 39.6 ± 1.7 µM | > 100 µM | > 100 µM | > 100 µM | > 100 µM | > 100 µM | enhanced caspase 3 activity but significantly (P<0.001) lower than fatty acid esters of phloridzin or the drug | > 100 µM | > 100 µM | > 100 µM | > 100 µM | 97.2 µM
